Legend:
Assay in all cases: relative viability (nuclei count vs DMSO), 5 days (fraction); higher = more cells survive
EKVX = test system: EKVX
Summary of the method: (§1)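 Nuclei were stained with Hoechst during a one-step fixation (final 0.05% Triton X-100, 1% formaldehyde, 1 ug/ml Hoechst) carried out 5 days after dosing, then counted on 4× images. The cells, lung cancer lines in 1536-well plates, had been dosed by pin tool the day after seeding with one drug alone or a fixed anchor-drug dose plus five library-drug doses (not always all listed) in √10 steps. Relative viability is the nuclei count in treated wells divided by that in vehicle wells, and each value is the median of duplicate plates.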

HCC-44 = test system: HCC-44
Summary of the method: as §1

NCI-H1648 = test system: NCI-H1648
Summary of the method: as §1

NCI-H2085 = test system: NCI-H2085
Summary of the method: as §1

NCI-H1993 = test system: NCI-H1993
Summary of the method: as §1

RERF-LC-KJ = test system: RERF-LC-KJ
Summary of the method: as §1

NCI-H2126 = test system: NCI-H2126
Summary of the method: as §1

ABC-1 = test system: ABC-1
Summary of the method: as §1

A549 = test system: A549
Summary of the method: as §1

Row | SMILES | relative viability (EKVX; first compound 0.08 µM) | relative viability (EKVX; first compound 0.253 µM) | relative viability (EKVX; first compound 0.8 µM) | relative viability (EKVX; first compound 2.53 µM) | relative viability (HCC-44; first compound 0.08 µM) | relative viability (HCC-44; first compound 0.253 µM) | relative viability (HCC-44; first compound 0.8 µM) | relative viability (HCC-44; first compound 2.53 µM) | relative viability (NCI-H1648; first compound 0.08 µM) | relative viability (NCI-H1648; first compound 0.253 µM) | relative viability (NCI-H1648; first compound 0.8 µM) | relative viability (NCI-H1648; first compound 2.53 µM) | relative viability (NCI-H2085; first compound 0.08 µM) | relative viability (NCI-H2085; first compound 0.253 µM) | relative viability (NCI-H2085; first compound 0.8 µM) | relative viability (NCI-H2085; first compound 2.53 µM) | relative viability (NCI-H1993; first compound 0.08 µM) | relative viability (NCI-H1993; first compound 0.253 µM) | relative viability (NCI-H1993; first compound 0.8 µM) | relative viability (NCI-H1993; first compound 2.53 µM) | relative viability (RERF-LC-KJ; first compound 0.08 µM) | relative viability (RERF-LC-KJ; first compound 0.253 µM) | relative viability (RERF-LC-KJ; first compound 0.8 µM) | relative viability (RERF-LC-KJ; first compound 2.53 µM) | relative viability (NCI-H2126; first compound 0.08 µM) | relative viability (NCI-H2126; first compound 0.253 µM) | relative viability (NCI-H2126; first compound 0.8 µM) | relative viability (NCI-H2126; first compound 2.53 µM) | relative viability (ABC-1; first compound 0.08 µM) | relative viability (ABC-1; first compound 0.253 µM) | relative viability (ABC-1; first compound 0.8 µM) | relative viability (ABC-1; first compound 2.53 µM) | relative viability (A549; first compound 0.08 µM) | relative viability (A549; first compound 0.253 µM) | relative viability (A549; first compound 0.8 µM) | relative viability (A549; first compound 2.53 µM)
1 | COc1nc(C)cnc1NS(=O)(=O)c1cccnc1-c1ccc(-c2nnco2)cc1 [Zibotentan] + CC(=O)Nc1cccc(-n2c(=O)n(C3CC3)c(=O)c3c(Nc4ccc(I)cc4F)n(C)c(=O)c(C)c32)c1 [Trametinib] (partner 0.02 µM) | 0.33 | 0.364 | 0.315 | 0.321 | 1.11 | 1 | 0.953 | 1.07 | 0.49 | 0.529 | 0.442 | 0.604 | 0.533 | 0.448 | 0.541 | 0.489 | 0.591 | 0.51 | 0.459 | 0.545 | 0.96 | 0.842 | 0.804 | 0.888 | 0.558 | 0.525 | 0.557 | 0.563 | – | – | – | – | – | – | – | –
2 | COc1nc(C)cnc1NS(=O)(=O)c1cccnc1-c1ccc(-c2nnco2)cc1 [Zibotentan] + CC(=O)c1c(C)c2cnc(Nc3ccc(N4CCNCC4)cn3)nc2n(C2CCCC2)c1=O [Palbociclib] (partner 0.5 µM) | 0.276 | 0.354 | 0.37 | 0.5 | 0.98 | 0.827 | 0.949 | 1 | 0.274 | 0.276 | 0.312 | 0.259 | 0.47 | 0.466 | 0.496 | 0.47 | 0.661 | 0.712 | 0.537 | 0.662 | 1.1 | 0.999 | 1.08 | 1.14 | 0.316 | 0.338 | 0.34 | 0.362 | 0.603 | 0.475 | 0.664 | 0.676 | – | – | – | –
3 | COc1nc(C)cnc1NS(=O)(=O)c1cccnc1-c1ccc(-c2nnco2)cc1 [Zibotentan] + Nc1nc2[nH]cc(CCc3ccc(C(=O)N[C@@H](CCC(=O)O)C(=O)O)cc3)c2c(=O)[nH]1 [Pemetrexed] (partner 0.2 µM) | 0.347 | 0.384 | 0.372 | 0.463 | 0.629 | 0.657 | 0.589 | 0.666 | 0.791 | 0.686 | 0.532 | 0.635 | 0.884 | 0.852 | 0.892 | 0.918 | 0.695 | 0.557 | 0.557 | 0.545 | 0.5 | 0.464 | 0.438 | 0.481 | 0.713 | 0.657 | 0.435 | 0.78 | – | – | – | – | – | – | – | –
4 | COc1nc(C)cnc1NS(=O)(=O)c1cccnc1-c1ccc(-c2nnco2)cc1 [Zibotentan] + Nc1ncn([C@H]2C[C@H](O)[C@@H](CO)O2)c(=O)n1 [Decitabine] (partner 2 µM) | 0.325 | 0.339 | 0.286 | 0.346 | 1.01 | 0.924 | 1.01 | 0.988 | 0.544 | 0.464 | 0.519 | 0.461 | 0.566 | 0.54 | 0.592 | 0.56 | 0.639 | 0.576 | 0.521 | 0.61 | 0.699 | 0.558 | 0.708 | 0.634 | 0.617 | 0.602 | 0.599 | 0.551 | 0.829 | 1.12 | 0.939 | 1.06 | 0.232 | 0.266 | 0.305 | 0.285

From the supplement of paper PMC10307832
